Data on 19 compounds can be found in patent publication US20220153741A1, “HETEROCYCLIC COMPOUNDS AS INHIBITORS OF KRAS G12C” (Guangdong Newopp Biopharmaceuticals Co., Ltd., priority 2019, published 2022).

Experiment [1] has as its system NCI-H358 (H358, KRAS G12C) cancer cell line. Briefly: 3D proliferation assay, NCI-H358 (CellTiter-Glo). It is filed as cell-based. Particulars: 96-well spheroid plate, 4 days. As for the experimental part:
(§1) 3D proliferation assay: NCI-H358 (H358, KRAS G12C) and LS513 (KRAS G12D) cancer cell lines were obtained from ATCC (American Type Culture Collection, VA). Cells were plated in 96-well spheroid plate (CORNING INC, NY)) in RPMI-1640 with 10% FBS. Compounds (11-point dilutions) and DMSO were added to the wells and incubated with cells for 4 days at 37° C. Cell viability was then determined by CellTiter-Glo (Promega, WI). IC50 values of compounds were determined as the concentration of 50% inhibition of cell viability compared to DMSO treated cells (A: IC50<0.1 μM; B: IC50 between 0.1 μM and 1 μM; C: IC50 between 1 μM and 10 μM; D: >10 μM; ND: not determined).

Experiment [2] has as its system LS513 (KRAS G12D) cancer cell line. Put plainly: 3D proliferation assay, LS513 (CellTiter-Glo). It counts as cell-based. Particulars: 96-well spheroid plate, 4 days. As for the experimental part:
as §1

In turn, `C=C(F)C(=O)N1C[C@H](C)N(c2nc(=O)n3c4nc(c(F)cc24)-c2c(F)cccc2NCCCc2ccnc(C(C)C)c2-3)C[C@H]1C` (single isomer, unassigned) [Example 6A] yielded an IC50 in experiment [1] of over 10 µM.
Regarding `C=C(F)C(=O)N1C[C@H](C)N(c2nc(=O)n3c4nc(c(F)cc24)-c2c(F)cccc2NCCCc2ccnc(C(C)C)c2-3)C[C@H]1C` (single isomer, unassigned) [Example 6B], the IC50 in experiment [1] is 0.1 to 1 µM; in experiment [2] (Homo sapiens, LS-513, 96 h) it was over 10 µM.
Turning to `C=CC(=O)N1C[C@H](C)N(c2nc(=O)n3c4nc(c(F)cc24)-c2c(F)cccc2NCCCNc2cccc(C(C)C)c2-3)C[C@H]1C` (single isomer, unassigned) [Example 23A], the IC50 is under 0.1 µM in experiment [1] (Homo sapiens, NCI-H358, 96 h) and over 10 µM in experiment [2].
As to `C=CC(=O)N1C[C@H](C)N(c2nc(=O)n3c4nc(c(F)cc24)-c2c(F)cccc2NCCCNc2cccc(C(C)C)c2-3)C[C@H]1C` (single isomer, unassigned) [Example 23B], the figures for the IC50 in experiment [1] and in experiment [2] were 0.1 to 1 µM and 1 to 10 µM, respectively.
Take `C=CC(=O)N1CCN(c2nc(=O)n3c4nc(c(F)cc24)-c2c(F)cccc2NCCCc2ccnc(C(C)C)c2-3)[C@@H](C)C1` [Example 2, (S)-2^4-(4-acryloyl-2-methylpiperazin-1-yl)-2^6,3^6-difluoro-1^2-isopropyl-2^1,2^2-dihydro-4-aza-2(1,7)-pyrido[2,3-d]pyrimidina-1(3,4)-pyridina-3(1,2)-benzenacycloheptaphan-2^2-one]: the IC50 is under 0.1 µM in experiment [1] (Homo sapiens, NCI-H358, 96 h) and over 10 µM in experiment [2] (Homo sapiens, LS-513, 96 h).
In turn, `C=CC(=O)N1CCN(c2nc(=O)n3c4nc(c(F)cc24)-c2c(F)cccc2NC(=O)CCc2ccnc(C(C)C)c2-3)C[C@@H]1CC#N` [Example 3, (S)-2-(1-acryloyl-4-(2^6,3^6-difluoro-1^2-isopropyl-2^2,5-dioxo-2^1,2^2-dihydro-4-aza-2(1,7)-pyrido[2,3-d]pyrimidina-1(3,4)-pyridina-3(1,2)-benzenacycloheptaphane-2^4-yl)piperazin-2-yl)acetonitrile] came in with an IC50 in experiment [1] (Homo sapiens, NCI-H358, 96 h) of 1 to 10 µM.
Same read-out and setting: to `C=CC(=O)N1CCN(c2nc(=O)n3c4nc(c(F)cc24)-c2c(F)cccc2NC(=O)NCCc2ccnc(C(C)C)c2-3)[C@@H](C)C1` [Example 5, (S)-2^4-(4-acryloyl-2-methylpiperazin-1-yl)-2^6,3^6-difluoro-1^2-isopropyl-2^1,2^2-dihydro-4,6-diaza-2(1,7)-pyrido[2,3-d]pyrimidina-1(3,4)-pyridina-3(1,2)-benzenacyclooctaphane-2^2,5-dione] belongs 0.1 to 1 µM.
For the compound `C=C(F)C(=O)N1CCN(c2nc(=O)n3c4nc(c(F)cc24)-c2c(F)cccc2NCCCc2ccnc(C(C)C)c2-3)[C@@H](C)C1` [Example 11, (S)-2^6,3^6-difluoro-2^4-(4-(2-fluoroacryloyl)-2-methylpiperazin-1-yl)-1^2-isopropyl-2^1,2^2-dihydro-4-aza-2(1,7)-pyrido[2,3-d]pyrimidina-1(3,4)-pyridina-3(1,2)-benzenacycloheptaphan-2^2-one], the IC50 in experiment [1] (Homo sapiens, NCI-H358, 96 h) was 0.1 to 1 µM; in experiment [2] (Homo sapiens, LS-513, 96 h), over 10 µM.
The like results for `C=CC(=O)N1CCN(c2nc(=O)n3c4nc(c(F)cc24)-c2c(F)cccc2N(C(C)=O)CCCc2ccnc(C(C)C)c2-3)[C@@H](C)C1` [Example 12, (S)-4-acetyl-2^4-(4-acryloyl-2-methylpiperazin-1-yl)-2^6,3^6-difluoro-1^2-isopropyl-2^1,2^2-dihydro-4-aza-2(1,7)-pyrido[2,3-d]pyrimidina-1(3,4)-pyridina-3(1,2)-benzenacycloheptaphan-2^2-one] were, in that order, 0.1 to 1 µM and over 10 µM.
Compound `C=CC(=O)N1CCN(c2nc(=O)n3c4nc(c(F)cc24)-c2c(F)cccc2N(C(=O)N(C)C)CCCc2ccnc(C(C)C)c2-3)[C@@H](C)C1` [Example 13, (S)-2^4-(4-acryloyl-2-methylpiperazin-1-yl)-2^6,3^6-difluoro-1^2-isopropyl-N,N-dimethyl-2^2-oxo-2^1,2^2-dihydro-4-aza-2(1,7)-pyrido[2,3-d]pyrimidina-1(3,4)-pyridina-3(1,2)-benzenacycloheptaphane-4-carboxamide] had an IC50 in experiment [1] (Homo sapiens, NCI-H358, 96 h) of 0.1 to 1 µM.
Turning to `C=CC(=O)N1CCN(c2nc(=O)n3c4nc(c(F)cc24)-c2c(F)cccc2N(C(=O)c2cccnc2)CCCc2ccnc(C(C)C)c2-3)[C@@H](C)C1` [Example 14, (S)-2^4-(4-acryloyl-2-methylpiperazin-1-yl)-2^6,3^6-difluoro-1^2-isopropyl-4-nicotinoyl-2^1,2^2-dihydro-4-aza-2(1,7)-pyrido[2,3-d]pyrimidina-1(3,4)-pyridina-3(1,2)-benzenacycloheptaphan-2^2-one], in experiment [1] (Homo sapiens, NCI-H358, 96 h), the IC50 is 1 to 10 µM.
Same read-out and setting: to `C=CC(=O)N1CCN(c2nc(=O)n3c4nc(c(F)cc24)-c2c(F)cccc2N(C)C(=O)NCCc2ccnc(C(C)C)c2-3)[C@@H](C)C1` [Example 16, (S)-2^4-(4-acryloyl-2-methylpiperazin-1-yl)-2^6,3^6-difluoro-1^2-isopropyl-4-methyl-2^1,2^2-dihydro-4,6-diaza-2(1,7)-pyrido[2,3-d]pyrimidina-1(3,4)-pyridina-3(1,2)-benzenacyclooctaphane-2^2,5-dione] belongs 1 to 10 µM.
Regarding `C=CC(=O)N1CCN(c2nc(=O)n3c4nc(c(F)cc24)-c2c(F)cccc2NC(=O)CCc2cccc(C(C)C)c2-3)[C@@H](C)C1` [Example 18, (S)-2^4-(4-acryloyl-2-methylpiperazin-1-yl)-2^6,3^6-difluoro-1^6-isopropyl-2^1,2^2-dihydro-4-aza-2(1,7)-pyrido[2,3-d]pyrimidina-1,3(1,2)-dibenzenacycloheptaphane-2^2,5-dione], the IC50 in experiment [1] (Homo sapiens, NCI-H358, 96 h) is 0.1 to 1 µM; in experiment [2] (Homo sapiens, LS-513, 96 h) it was over 10 µM.
The matching figures for `C=CC(=O)N1CCN(c2nc(=O)n3c4nc(c(F)cc24)-c2c(F)cccc2NC(=O)CCNc2cccc(C(C)C)c2-3)[C@@H](C)C1` [Example 21, (S)-2^4-(4-acryloyl-2-methylpiperazin-1-yl)-2^6,3^6-difluoro-1^6-isopropyl-2^1,2^2-dihydro-4,8-diaza-2(1,7)-pyrido[2,3-d]pyrimidina-1,3(1,2)-dibenzenacyclooctaphane-2^2,5-dione]: under 0.1 µM and over 10 µM.
The matching figures for `C=CC(=O)N1C[C@H](C)N(c2nc(=O)n3c4nc(c(F)cc24)-c2c(F)cccc2NC(=O)CCNc2cccc(C(C)C)c2-3)C[C@H]1C` [Example 24A, 2^4-((2S,5R)-4-acryloyl-2,5-dimethylpiperazin-1-yl)-2^6,3^6-difluoro-1^6-isopropyl-2^1,2^2-dihydro-4,8-diaza-2(1,7)-pyrido[2,3-d]pyrimidina-1,3(1,2)-dibenzenacyclooctaphane-2^2,5-dione]: under 0.1 µM and over 10 µM.
With `C=CC(=O)N1CCN(c2nc(=O)n3c4nc(c(F)cc24)-c2c(F)cccc2NC(=O)CNc2cccc(C(C)C)c2-3)[C@@H](C)C1` [Example 25, (S)-2^4-(4-acryloyl-2-methylpiperazin-1-yl)-2^6,3^6-difluoro-1^6-isopropyl-2^1,2^2-dihydro-4,7-diaza-2(1,7)-pyrido[2,3-d]pyrimidina-1,3(1,2)-dibenzenacycloheptaphane-2^2,5-dione], the IC50 in experiment [1] (Homo sapiens, NCI-H358, 96 h) is under 0.1 µM; in experiment [2] (Homo sapiens, LS-513, 96 h), over 10 µM.
As for `C=CC(=O)N1C[C@H](C)N(c2nc(=O)n3c4nc(c(F)cc24)-c2c(F)cccc2NC(=O)CNc2cccc(C(C)C)c2-3)C[C@H]1C` [Example 26, 2^4-((2S,5R)-4-acryloyl-2,5-dimethylpiperazin-1-yl)-2^6,3^6-difluoro-1^6-isopropyl-2^1,2^2-dihydro-4,7-diaza-2(1,7)-pyrido[2,3-d]pyrimidina-1,3(1,2)-dibenzenacycloheptaphane-2^2,5-dione], the 50% inhibitory concentration (IC50) in experiment [1] (Homo sapiens, NCI-H358, 96 h) is under 0.1 µM; in experiment [2] (Homo sapiens, LS-513, 96 h) it was over 10 µM.
With `C=CC(=O)N1CCN(c2nc(=O)n3c4nc(c(F)cc24)-c2c(F)cccc2NC(=O)CCN(C)c2cccc(C(C)C)c2-3)C(C)C1` [Example 29, (S)-2^4-(4-acryloyl-2-methylpiperazin-1-yl)-2^6,3^6-difluoro-1^6-isopropyl-8-methyl-2^1,2^2-dihydro-4,8-diaza-2(1,7)-pyrido[2,3-d]pyrimidina-1,3(1,2)-dibenzenacyclooctaphane-2^2,5-dione], the IC50 in experiment [1] is under 0.1 µM; in experiment [2] it was over 10 µM.
In the case of `C=CC(=O)N1C[C@H](C)N(c2nc(=O)n3c4nc(c(F)cc24)-c2c(F)cccc2NC(=O)CCN(C)c2cccc(C(C)C)c2-3)C[C@H]1C` [Example 30, 2^4-((2S,5R)-4-acryloyl-2,5-dimethylpiperazin-1-yl)-2^6,3^6-difluoro-1^6-isopropyl-8-methyl-2^1,2^2-dihydro-4,8-diaza-2(1,7)-pyrido[2,3-d]pyrimidina-1,3(1,2)-dibenzenacyclooctaphane-2^2,5-dione], the IC50 in experiment [1] (Homo sapiens, NCI-H358, 96 h) was under 0.1 µM; in experiment [2] (Homo sapiens, LS-513, 96 h), over 10 µM.
